Test: Random venous lactic acid measurement
Assay type: in vivo, human
Details: for months after resuming therapy; normal range 0.5-2.1 mmol/L
From the text: Venous specimens for lactic acid determination were collected in sodium fluoride/potassium oxalate tubes, with normal tourniquet and no specific patient instruction other than the avoidance of first clenching or hand pumping. […]

Question: Which venous lactate levels does the source give for Cc1cn([C@H]2C[C@H](N=[N+]=[N-])[C@@H](CO)O2)c(=O)[nH]c1=O [zidovudine] here?
Answer: Its venous lactate levels is “remained within the normal range”.

Reference: patent US20090053697A1, “Pharmacological Applications of Mitochondrial DNA Assays” (priority 2001, published 2009)
